Each molecule was assayed against T1, haematopoietic prostaglandin D synthase (H-PGDS) (Homo sapiens, UniProt O60760) (assay: H-PGDS RapidFire high throughput mass spectrometry assay (conversion of PGH2 to PGD2)). Details: 10 nM H-PGDS, PGH2 formed in situ by COX-2 from arachidonic acid; read-out: Potency Range (mean pIC50) (converted).
T1 construct: Full length human H-PGDS cDNA (Invitrogen Ultimate ORF 10H13026) was amplified by PCR; 6-His (N); TEV protease cleavage site (N); made in house; host or cells: E. coli BL21 (DE3*), vector pET22b+
T1 sequence (O60760 whole entry): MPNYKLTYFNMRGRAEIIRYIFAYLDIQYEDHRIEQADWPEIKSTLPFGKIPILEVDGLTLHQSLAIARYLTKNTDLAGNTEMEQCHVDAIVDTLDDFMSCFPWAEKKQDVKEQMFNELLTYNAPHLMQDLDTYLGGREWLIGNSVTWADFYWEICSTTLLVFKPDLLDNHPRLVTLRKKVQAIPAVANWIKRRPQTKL
Type: biochemical
Experimental: H-PGDS RapidFire™ High Throughput Mass Spectrometry Assay
The H-PGDS RapidFire™ mass spectrometric assay monitors conversion of prostaglandin H2 (PGH2) to prostaglandin D2 (PGD2) by haematopoietic prostaglandin D synthase (H-PGDS). In the assay format described here, the substrate (PGH2) is formed in situ by the action of cyclooxygenase-2 on arachidonic acid. This first step is set up to be fast, and generates a burst of PGH2 at ˜10 μM. The PGH2 is then further converted to PGD2 by the H-PGDS enzyme. […] Plates are then read on the RapidFire™ high throughput solid phase extraction system (Agilent) which incorporates a solid phase extraction step coupled to a triple quadrupole mass spectrometer (AB SCIEX). Relative levels of PGD2 and PGF2α, which acts as a surrogate for substrate, are measured and a percent conversion calculated.
Expression and Purification of H-PGDS Protein
Full length human H-PGDS cDNA (Invitrogen Ultimate ORF 10H13026) was amplified by PCR with the addition of a 5′ 6-His tag and TEV protease cleavage site. The PCR product was digested with Ndel and Xhol and ligated into pET22b+ (Merck Novagen®). Expression was carried out in E. coli strain BL21 (DE3*) using auto-induction Overnight Express™ Instant TB medium (Merck Novagen®) supplemented with 1% glycerol. The culture was first grown at 37° C. and the temperature was reduced to 25° C. when OD600 reached 2.0. Cells were harvested by centrifugation after a further 18 hr. 10 g of E. coli cell pellet was suspended to a total volume of 80 mL in lysis buffer (20 mM Tris-Cl pH 7.5, 300 mM NaCl, 20 mM imidazole, 5 mM β-mercaptoethanol, 10% glycerol). 1 mg/mL protease inhibitors (Protease Inhibitor Cocktail Set III, Merck Calbiochem®) and 1 mg/mL lysozyme were added to the cell suspension. The suspension was then sonicated for 5 min (UltraSonic Processor VCX 750, Cole-Parmer Instrument Co.) with a micro probe (50% amplitude, 10 sec on/off) and then centrifuged at 100,000 g for 90 min (at 4° C.). The supernatant was loaded onto a Ni-NTA HiTrap column (5 mL, GE Healthcare, pre-equilibrated in lysis buffer). The column was washed with 10 column volumes of lysis buffer and eluted with lysis buffer containing 500 mM imidazole. The pooled protein peak fractions were concentrated using a 10 kDa centrifugal filter at 3500 g and 4° C. (Amicon Ultra-15 centrifugal filter unit with Ultracel-10 membrane from Millipore). Further purification of the concentrated protein was carried out using gel filtration chromatography on a HiLoad 26/600 Superdex 75 preparative grade column (GE Healthcare Life Sciences) using 50 mM Tris pH 7.5, 50 mM NaCl, 1 mM dithiothreitol, 1 mM MgCl2. Fractions containing the protein were pooled, concentrated as described above, and stored at −80° C.
Expression and Purification of Cyclooxygenase-2 (COX-2) Protein
The full length human COX-2 gene (accession number L15326) was amplified by PCR to generate an EcoRI-HindIII fragment containing an in-frame FLAG tag. This was subcloned into pFastBac 1 (Invitrogen). The COX2 FLAG plasmid was recombined into the baculovirus genome according to the BAC-to-BAC protocol described by Invitrogen. Transfection into Spodoptera frugiperda (Sf9) insect cells was performed using Cellfectin (Invitrogen), according to the manufacturer's protocol. […] Cells were harvested using a continuous feed centrifuge run at 2500 g at a rate of approximately 2 L/min with cooling. The resultant cell slurry was re-centrifuged in pots (2500 g, 20 min, 4° C.) and the cell paste was stored at −80° C. […] The suspension was sonicated in 500 mL batches for 8×5 seconds at 10 u amplitude with the medium tip of an MSE probe sonicator and subsequently incubated at 4° C. for 90 min with gentle stirring. The lysate was centrifuged at 12000 rpm for 45 min at 4° C. in a Sorvall SLA1500 rotor. The supernatant (1400 mL) was added to 420 mL of 20 mM Tris-Cl pH 7.4, 150 mM NaCl, 0.1 mM EDTA to reduce the concentration of n-octyl-6-D-glucopyranoside to 1% w/v.

SMILES | IC50
CC1C(Oc2cccc3scnc23)CN1C(=O)N[C@H]1CC[C@H](C(C)(C)O)CC1 (mixture of isomers) [Example 240, Racemic 3-(Benzo[d]thiazol-4-yloxy)-N-((trans)-4-(2-hydroxypropan-2-yl)cyclohexyl)-2-methylazetidine-1-carboxamide] | 10 to 79.4 nM
O=C(NC1CCS(=O)(=O)C1)[C@H]1C[C@H](Oc2cccc3scnc23)C1 (mixture of isomers) [Example 254, Racemic (trans)-3-(Benzo[d]thiazol-4-yloxy)-N-(1,1-dioxidotetrahydrothiophen-3-yl)cyclobutanecarboxamide] | 100 to 1000 nM
CC(C)(O)[C@H]1CC[C@H](NC(=O)N2CC(C(F)c3cccc4cccnc34)C2)CC1 (mixture of isomers) [Example 256, Racemic 3-(Fluoro(quinolin-8-yl)methyl)-N-((trans)-4-(2-hydroxypropan-2-yl)cyclohexyl)azetidine-1-carboxamide] | 100 to 1000 nM
O=C(NC1CCc2ccccc21)[C@H]1C[C@H](Oc2cccc(Cl)c2)C1 (mixture of isomers) [Example 286, Racemic (trans)-3-(3-Chlorophenoxy)-N-(2,3-dihydro-1H-inden-1-yl)cyclobutanecarboxamide] | 10 to 79.4 nM
CC(C)(O)[C@H]1CC[C@H](NC(=O)N2CC(Oc3cc(F)ccc3OC(F)F)C2)CC1 [Example 1, 3-(2-(Difluoromethoxy)-5-fluorophenoxy)-N-((trans)-4-(2-hydroxypropan-2-yl)cyclohexyl)azetidine-1-carboxamide] | 100 to 1000 nM
CCCCn1nnnc1NC(=O)[C@H]1C[C@H](Oc2cc(F)ccc2OC(F)F)C1 [Example 2, (trans)-N-(1-Butyl-1H-tetrazol-5-yl)-3-(2-(difluoromethoxy)-5-fluorophenoxy)cyclobutanecarboxamide] | 10 to 79.4 nM
Cn1nnnc1NC(=O)[C@H]1C[C@H](Oc2cc(F)ccc2OC(F)F)C1 [Example 3, (trans)-3-(2-(Difluoromethoxy)-5-fluorophenoxy)-N-(1-methyl-1H-tetrazol-5-yl)cyclobutanecarboxamide] | 100 to 1000 nM
O=C(NC1CN(c2ccnc(Cl)n2)C1)[C@H]1C[C@H](Oc2cc(F)ccc2OC(F)F)C1 [Example 6, (trans)-N-(1-(2-Chloropyrimidin-4-yl)azetidin-3-yl)-3-(2-(difluoromethoxy)-5-fluorophenoxy)cyclobutanecarboxamide] | 10 to 79.4 nM
O=C(NC1CN(c2nccc(Cl)n2)C1)[C@H]1C[C@H](Oc2cc(F)ccc2OC(F)F)C1 [Example 7, (trans)-N-(1-(4-Chloropyrimidin-2-yl)azetidin-3-yl)-3-(2-(difluoromethoxy)-5-fluorophenoxy)cyclobutanecarboxamide] | < 10 nM
O=C(NC1CN(c2ncc(F)cn2)C1)[C@H]1C[C@H](Oc2cc(F)ccc2OC(F)F)C1 [Example 8, (trans)-3-(2-(Difluoromethoxy)-5-fluorophenoxy)-N-(1-(5-fluoropyrimidin-2-yl)azetidin-3-yl)cyclobutanecarboxamide] | 10 to 79.4 nM
O=C(N[C@H]1CC[C@H](Nc2ncccn2)CC1)[C@H]1C[C@H](Oc2cc(F)ccc2OC(F)F)C1 [Example 10, (trans)-3-(2-(Difluoromethoxy)-5-fluorophenoxy)-N-((trans)-4-(pyrimidin-2-ylamino)cyclohexyl)cyclobutanecarboxamide] | 10 to 79.4 nM
O=C(Nc1ncc(CO)s1)[C@H]1C[C@H](Oc2cc(F)ccc2OC(F)F)C1 [Example 12, (trans)-3-(2-(Difluoromethoxy)-5-fluorophenoxy)-N-(5-(hydroxymethyl)thiazol-2-yl)cyclobutanecarboxamide] | 10 to 79.4 nM
O=C(Nc1nc(COC(=O)[C@H]2C[C@H](Oc3cc(F)ccc3OC(F)F)C2)cs1)[C@H]1C[C@H](Oc2cc(F)ccc2OC(F)F)C1 [Example 13, (trans)-(2-((trans)-3-(2-(Difluoromethoxy)-5-fluorophenoxy)cyclobutanecarboxamido)thiazol-4-yl)methyl 3-(2-(difluoromethoxy)-5-fluorophenoxy)cyclobutanecarboxylate] | 100 to 1000 nM
O=C(NC1CN(CC(F)F)C1)[C@H]1C[C@H](Oc2cc(F)ccc2OC(F)F)C1 [Example 15, (trans)-N-(1-(2,2-Difluoroethyl)azetidin-3-yl)-3-(2-(difluoromethoxy)-5-fluorophenoxy)cyclobutanecarboxamide] | 100 to 1000 nM
CC(C)(C)c1nnc(NC(=O)[C@H]2C[C@H](Oc3cc(F)ccc3OC(F)F)C2)o1 [Example 16, (trans)-N-(5-(tert-Butyl)-1,3,4-oxadiazol-2-yl)-3-(2-(difluoromethoxy)-5-fluorophenoxy)cyclobutanecarboxamide] | 10 to 79.4 nM
O=C(NC1CN(c2ncccn2)C1)[C@H]1C[C@H](Oc2cc(F)ccc2OC(F)F)C1 [Example 17, (trans)-3-(2-(Difluoromethoxy)-5-fluorophenoxy)-N-(1-(pyrimidin-2-yl)azetidin-3-yl)cyclobutanecarboxamide] | 10 to 79.4 nM
O=C(NC1CN(c2ccccn2)C1)[C@H]1C[C@H](Oc2cc(F)ccc2OC(F)F)C1 [Example 18, (trans)-3-(2-(Difluoromethoxy)-5-fluorophenoxy)-N-(1-(pyridin-2-yl)azetidin-3-yl)cyclobutanecarboxamide] | 10 to 79.4 nM
O=C(N[C@H]1CC[C@H](N2CC(F)(F)C2)CC1)[C@H]1C[C@H](Oc2cc(F)ccc2OC(F)F)C1 [Example 19, (trans)-N-((trans)-4-(3,3-Difluoroazetidin-1-yl)cyclohexyl)-3-(2-(difluoromethoxy)-5-fluorophenoxy)cyclobutanecarboxamide] | 10 to 79.4 nM
O=C(N[C@H]1CC[C@H](N[C@@H](CO)C(F)(F)F)CC1)[C@H]1C[C@H](Oc2cc(F)ccc2OC(F)F)C1 [Example 20, (trans)-3-(2-(Difluoromethoxy)-5-fluorophenoxy)-N-((trans)-4-(((S)-1,1,1-trifluoro-3-hydroxypropan-2-yl)amino)cyclohexyl)cyclobutanecarboxamide] | 10 to 79.4 nM
O=C(Nc1cncnc1)[C@H]1C[C@H](Oc2cc(F)ccc2OC(F)F)C1 [Example 22, (trans)-3-(2-(Difluoromethoxy)-5-fluorophenoxy)-N-(pyrimidin-5-yl)cyclobutanecarboxamide] | 100 to 1000 nM
C[C@]1(O)CC[C@H](NC(=O)[C@H]2C[C@H](Oc3cc(F)ccc3OC(F)F)C2)CC1 [Example 29, (trans)-3-(2-(Difluoromethoxy)-5-fluorophenoxy)-N-((trans)-4-hydroxy-4-methylcyclohexyl)cyclobutanecarboxamide] | 10 to 79.4 nM
CCOC(=O)c1csc(NC(=O)[C@H]2C[C@H](Oc3cc(F)ccc3OC(F)F)C2)n1 [Example 31, ethyl 2-((trans)-3-(2-(difluoromethoxy)-5-fluorophenoxy)cyclobutanecarboxamido)thiazole-4-carboxylate] | < 10 nM
O=C(c1csc(NC(=O)[C@H]2C[C@H](Oc3cc(F)ccc3OC(F)F)C2)n1)C1CC1 [Example 32, (trans)-N-(4-(Cyclopropanecarbonyl)thiazol-2-yl)-3-(2-(difluoromethoxy)-5-fluorophenoxy)cyclobutanecarboxamide] | < 10 nM

Source: US11053234B2 (GlaxoSmithKline Intellectual Property Development Limited, priority 2016, dated 2021)
